Source: patent US6348445B1, “Biologically active peptides with reduced toxicity in animals and a method for preparing same” (priority 1992, dated 2002)

How the values were obtained:
[1] = maximal tolerated dose, single intravenous administration of Compound 1324; format: in vivo, mice; details: for Number of Survivors on Day 0: 2 or 6.5 hrs post-administration
Description: Mice received single intravenous administrations of Compound 1324, the methane sulfonate analogue of Compound 843, and were monitored for survival for at least 4 days. There were no deaths at a dose of less than or equal to 180 mg/kg.
To determine the maximal tolerated dose (MTD) and estimate the lethal dose 50% (LD50) of Compound 1324 sodium when administered intravenously in a single-bolus in mice.
Animals: On arrival and study initiation, three groups Thirty-seven male CD-1 mice (Charles River Lab)had average body weights of 39, 28 and 28 gm, respectively.
Solution Prep: A 120 mg/ml of active Compound 1324 (active moiety corrected for) was made in saline. All concentrations from 5 mg/ml to 80 mg/ml were dilutions of the 120 mg/ml solution with saline. The highest concentration used in the intravenous administration was 20 mg/ml.
Mice were randomly assigned to one of ten groups (4 mice per group, except the highest dose group which only had one mouse). Mice were administered intravenously 10 ml/kg of either 0 (saline), 5, 6, 7, 8, 14, 16, 18, or 20 mg/ml solution for doses of […]. One mouse received 14.1 ml/kg of a 20 mg/ml solution for a dose of 282 mg/kg. Mice were monitored for survival for at least four days post-administration.

[2] = pharmacokinetics, single intravenous dose, plasma bioassay (E. coli zone clearing); format: in vivo, mice; details: 140 mg/kg i.v.
Description: A pharmacokinetics study of MSI-1324 in mice using a single dose administration was conducted. Thirty-two CD-1 male mice were injected with MSI-1324 sodium with a dose of 140 mg/kg (corrected for peptide content). Terminal blood samples were obtained from 2 to 4 mice at timepoints of 0 (prior to dosing), 5, 15, 30, 60 min, 2, 4, 6, 24, and 48 hours post-dose. Plasma concentrations were estimated by bioassay.
40 animals CD-1®BR mice (Charles River Lab) with a mean body weight of 25.6 gms at study initiation were used.
A 14 mg/mL solution of MSI-1324 was made in saline (0.9% sodium chloride injectable USP, Baxter) corrected for peptide content.
Thirty-six mice were intravenously administered a single bolus of MSI-1324 at a dose of 140 mg/kg corrected for peptide content using an injection volume of 10 mL/kg of the 14 mg/mL solution. Four mice were not injected and supplied pre-dosing blood samples. Terminal blood samples were obtained via cardiac puncture in halothane-anesthetized mice at timepoints of 0 (prior to dosing), 5, 15, 30, 60 min, 2, 4, 6, 24, and 48 hours post-dose. Two to four mice were terminally bled at each timepoint. The blood samples were centrifuged and plasma transferred into separate tubes for bioassay analysis. The bioassay used was antibacterial zone clearing (disk diffusion) on Escherichia coli lawns.

CCCCCCCC(=O)N[C@@H](CCCNCS(=O)(=O)O)C(=O)N[C@@H](CCCNCS(=O)(=O)O)C(=O)N[C@@H](CC(C)C)C(=O)N[C@@H](CC(C)C)C(=O)N[C@@H](CCCNCS(=O)(=O)O)C(=O)N[C@@H](CCCNCS(=O)(=O)O)C(=O)N[C@@H](CC(C)C)C(=O)N[C@@H](CCCNCS(=O)(=O)O)C(=O)N[C@@H](CCCNCS(=O)(=O)O)C(=O)N[C@@H](CC(C)C)C(N)=O [Compound 1324]
mice that survived ([1]; 200 mg/kg single intravenous): Three of four
Number of Survivors on Day 1 ([1]; IV 50 mg/kg, 4 mice): 4
Number of Survivors on Day 2 ([1]; IV 50 mg/kg, 4 mice): 4
Number of Survivors on Day 3 ([1]; IV 50 mg/kg, 4 mice): 4
Number of Survivors on Day 4 ([1]; IV 50 mg/kg, 4 mice): 4
Number of Survivors on Day 5 ([1]; IV 50 mg/kg, 4 mice): 4
Number of Survivors on Day 0 ([1]; IV 50 mg/kg, 4 mice): 4
Number of Survivors on Day 1 ([1]; IV 60 mg/kg, 4 mice): 4
Number of Survivors on Day 2 ([1]; IV 60 mg/kg, 4 mice): 4
Number of Survivors on Day 3 ([1]; IV 60 mg/kg, 4 mice): 4
Number of Survivors on Day 4 ([1]; IV 60 mg/kg, 4 mice): 4
Number of Survivors on Day 5 ([1]; IV 60 mg/kg, 4 mice): 4
Number of Survivors on Day 0 ([1]; IV 60 mg/kg, 4 mice): 4
Number of Survivors on Day 1 ([1]; IV 70 mg/kg, 4 mice): 4
Number of Survivors on Day 2 ([1]; IV 70 mg/kg, 4 mice): 4
Number of Survivors on Day 3 ([1]; IV 70 mg/kg, 4 mice): 4
Number of Survivors on Day 4 ([1]; IV 70 mg/kg, 4 mice): 4
Number of Survivors on Day 5 ([1]; IV 70 mg/kg, 4 mice): 4
Number of Survivors on Day 0 ([1]; IV 70 mg/kg, 4 mice): 4
Number of Survivors on Day 1 ([1]; IV 80 mg/kg, 4 mice): 4
Number of Survivors on Day 2 ([1]; IV 80 mg/kg, 4 mice): 4
Number of Survivors on Day 3 ([1]; IV 80 mg/kg, 4 mice): 4
Number of Survivors on Day 4 ([1]; IV 80 mg/kg, 4 mice): 4
Number of Survivors on Day 5 ([1]; IV 80 mg/kg, 4 mice): 4
Number of Survivors on Day 0 ([1]; IV 80 mg/kg, 4 mice): 4
Number of Survivors on Day 1 ([1]; IV 140 mg/kg, 4 mice): 4
Number of Survivors on Day 2 ([1]; IV 140 mg/kg, 4 mice): 4
Number of Survivors on Day 3 ([1]; IV 140 mg/kg, 4 mice): 4
Number of Survivors on Day 4 ([1]; IV 140 mg/kg, 4 mice): 4
Number of Survivors on Day 5 ([1]; IV 140 mg/kg, 4 mice): 4
Number of Survivors on Day 7 ([1]; IV 140 mg/kg, 4 mice): 4
Number of Survivors on Day 0 ([1]; IV 140 mg/kg, 4 mice): 4
Number of Survivors on Day 1 ([1]; IV 160 mg/kg, 4 mice): 4
Number of Survivors on Day 2 ([1]; IV 160 mg/kg, 4 mice): 4
Number of Survivors on Day 3 ([1]; IV 160 mg/kg, 4 mice): 4
Number of Survivors on Day 4 ([1]; IV 160 mg/kg, 4 mice): 4
Number of Survivors on Day 5 ([1]; IV 160 mg/kg, 4 mice): 4
Number of Survivors on Day 7 ([1]; IV 160 mg/kg, 4 mice): 4
Number of Survivors on Day 0 ([1]; IV 160 mg/kg, 4 mice): 4
Number of Survivors on Day 1 ([1]; IV 180 mg/kg, 4 mice): 4
Number of Survivors on Day 2 ([1]; IV 180 mg/kg, 4 mice): 4
Number of Survivors on Day 3 ([1]; IV 180 mg/kg, 4 mice): 4
Number of Survivors on Day 4 ([1]; IV 180 mg/kg, 4 mice): 4
Number of Survivors on Day 5 ([1]; IV 180 mg/kg, 4 mice): 4
Number of Survivors on Day 7 ([1]; IV 180 mg/kg, 4 mice): 4
Number of Survivors on Day 0 ([1]; IV 180 mg/kg, 4 mice): 4
Number of Survivors on Day 2 ([1]; IV 200 mg/kg, 4 mice): 3
Number of Survivors on Day 3 ([1]; IV 200 mg/kg, 4 mice): 3
Number of Survivors on Day 4 ([1]; IV 200 mg/kg, 4 mice): 3
Number of Survivors on Day 2 ([1]; IV 282 mg/kg, 1 mouse): 0
Number of Survivors on Day 3 ([1]; IV 282 mg/kg, 1 mouse): 0
Number of Survivors on Day 4 ([1]; IV 282 mg/kg, 1 mouse): 0
LD50 ([1]; mouse, in vivo, single intravenous bolus, CD-1 mice): 200 to 282 mg/kg
peak plasma concentration ([2]; estimated by bioassay): approximately 600 ug/mL
time of peak concentration post-dose ([2]; first sampling timepoint): 5 min
plasma concentration at 60 min post-dose ([2]; limit of detection approximately 150 ug/mL, listed as MSI-1324): below detection limits of the assay
level at 1 h ([2]; male, CD-1, mouse, plasma, iv, limit of detection approximately 150 ug/mL, read-out: plasma concentration at 60 min post-dose): < 150 µg/mL
